± gives the expanded uncertainty stated by the source.
Details: Liquid; for mass density: Vibrating tube method; for viscosity: Vibrating wire viscometry

CC(C)CCCC(C)CCCC(C)CCCCC(C)CCCC(C)CCCC(C)C (configuration not stated) [2,6,10,15,19,23-hexamethyltetracosane]
Details	mass density [kg/m3]	viscosity [mPa·s]
338.19 K, 1050 kPa	779.26 ± 1.6	6.815 ± 0.14
338.19 K, 21210 kPa	792.77 ± 1.6	9.666 ± 0.2
338.2 K, 40640 kPa	803.93 ± 1.7	13.19 ± 0.28
338.2 K, 60420 kPa	814.29 ± 1.7	17.71 ± 0.37
338.2 K, 79830 kPa	822.46 ± 1.8	23.48 ± 0.49
338.2 K, 100230 kPa	831.55 ± 1.9	30.94 ± 0.65
338.2 K, 140240 kPa	845.12 ± 1.9	52.3 ± 1.1
338.2 K, 161300 kPa	851.46 ± 2	68.14 ± 1.4
338.21 K, 119820 kPa	837.96 ± 1.9	40.32 ± 0.85
338.22 K, 940 kPa	778.91 ± 1.6	6.808 ± 0.14
338.29 K, 1010 kPa	779.46 ± 1.6	6.83 ± 0.14
373.12 K, 620 kPa	756.02 ± 1.5	3.122 ± 0.066
373.12 K, 780 kPa	756.09 ± 1.5	3.125 ± 0.066
373.12 K, 20350 kPa	771.55 ± 1.6	4.234 ± 0.089
373.12 K, 39970 kPa	784.5 ± 1.6	5.565 ± 0.12
373.12 K, 60030 kPa	795.89 ± 1.7	7.219 ± 0.15
373.12 K, 80950 kPa	806.36 ± 1.8	9.293 ± 0.2
373.12 K, 101160 kPa	815.48 ± 1.9	11.72 ± 0.25
373.12 K, 120420 kPa	823.57 ± 1.9	14.4 ± 0.3
373.12 K, 140640 kPa	831.1 ± 2	17.83 ± 0.38
373.12 K, 159510 kPa	837.61 ± 2	21.73 ± 0.46
373.12 K, 180460 kPa	843.98 ± 2.1	26.77 ± 0.56
373.12 K, 201380 kPa	850.63 ± 2.1	32.72 ± 0.69
388.13 K, 890 kPa	746.65 ± 1.5	2.432 ± 0.055
388.13 K, 20290 kPa	762.98 ± 1.6	3.25 ± 0.069
388.13 K, 80490 kPa	799.25 ± 1.8	6.828 ± 0.14
388.13 K, 101530 kPa	809.12 ± 1.9	8.548 ± 0.18
388.13 K, 120960 kPa	817.16 ± 1.9	10.46 ± 0.22
388.13 K, 139900 kPa	824.59 ± 2	12.58 ± 0.26
388.14 K, 1100 kPa	746.78 ± 1.5	2.436 ± 0.055
388.14 K, 40380 kPa	776.95 ± 1.6	4.242 ± 0.089
388.14 K, 59850 kPa	788.53 ± 1.7	5.392 ± 0.11
388.14 K, 160800 kPa	832.35 ± 2	15.31 ± 0.32
388.14 K, 180610 kPa	838.96 ± 2.1	18.4 ± 0.39
388.14 K, 201470 kPa	845.55 ± 2.1	22.16 ± 0.47
413.17 K, 1050 kPa	730.56 ± 1.5	1.691 ± 0.037
413.18 K, 20110 kPa	748.65 ± 1.6	2.233 ± 0.047
413.18 K, 40280 kPa	763.94 ± 1.6	2.885 ± 0.061
413.18 K, 60200 kPa	776.68 ± 1.7	3.62 ± 0.076
413.21 K, 80740 kPa	788.16 ± 1.8	4.485 ± 0.095
413.22 K, 100350 kPa	797.82 ± 1.9	5.454 ± 0.12
413.22 K, 120460 kPa	806.56 ± 1.9	6.574 ± 0.14
413.24 K, 610 kPa	730.1 ± 1.5	1.68 ± 0.037
413.24 K, 140200 kPa	815.07 ± 2	7.831 ± 0.17
413.25 K, 160570 kPa	822.8 ± 2	9.322 ± 0.2
413.25 K, 181450 kPa	829.85 ± 2.1	11.12 ± 0.23
413.25 K, 202090 kPa	836.75 ± 2.2	13.06 ± 0.27
433.18 K, 1120 kPa	717.8 ± 1.5	1.324 ± 0.029
433.19 K, 60430 kPa	767.55 ± 1.7	2.785 ± 0.059
433.19 K, 160660 kPa	815.65 ± 2.1	6.774 ± 0.14
433.19 K, 180700 kPa	823.09 ± 2.1	7.891 ± 0.17
433.19 K, 200370 kPa	830.05 ± 2.2	9.057 ± 0.19
433.2 K, 80190 kPa	779.13 ± 1.8	3.392 ± 0.072
433.21 K, 100280 kPa	789.84 ± 1.9	4.072 ± 0.086
433.21 K, 120040 kPa	798.72 ± 1.9	4.865 ± 0.1
433.21 K, 140200 kPa	807.55 ± 2	5.754 ± 0.12
433.31 K, 600 kPa	717.04 ± 1.4	1.309 ± 0.028
433.35 K, 20500 kPa	737.74 ± 1.5	1.749 ± 0.037
433.36 K, 680 kPa	717.22 ± 1.4	1.309 ± 0.028
433.36 K, 40310 kPa	753.83 ± 1.6	2.231 ± 0.047
452.85 K, 201770 kPa	823.37 ± 2.2	6.867 ± 0.14
452.95 K, 163170 kPa	809.3 ± 2.1	5.261 ± 0.11
452.95 K, 180270 kPa	815.84 ± 2.1	5.937 ± 0.12
453.15 K, 1150 kPa	704.74 ± 1.4	1.062 ± 0.023
453.16 K, 20190 kPa	726.4 ± 1.5	1.405 ± 0.03
453.17 K, 40450 kPa	744.09 ± 1.6	1.796 ± 0.038
453.18 K, 60480 kPa	758.43 ± 1.7	2.222 ± 0.047
453.18 K, 80140 kPa	770.59 ± 1.8	2.681 ± 0.057
453.18 K, 100410 kPa	781.58 ± 1.9	3.214 ± 0.068
453.19 K, 160150 kPa	808.49 ± 2.1	5.142 ± 0.11
453.2 K, 120790 kPa	791.61 ± 1.9	3.8 ± 0.08
453.2 K, 140400 kPa	800.32 ± 2	4.438 ± 0.094
453.2 K, 180710 kPa	816.55 ± 2.1	5.945 ± 0.12
472.81 K, 1050 kPa	691.59 ± 1.4	0.867 ± 0.019
473.03 K, 200210 kPa	815.83 ± 2.2	5.348 ± 0.11
473.04 K, 1050 kPa	691.45 ± 1.4	0.868 ± 0.019
473.05 K, 150 kPa	690.19 ± 1.4	0.853 ± 0.019
473.05 K, 20040 kPa	715.2 ± 1.5	1.151 ± 0.025
473.05 K, 39890 kPa	733.71 ± 1.6	1.465 ± 0.031
473.05 K, 120200 kPa	783.48 ± 1.9	3.031 ± 0.064
473.05 K, 140440 kPa	792.71 ± 2	3.531 ± 0.075
473.05 K, 160340 kPa	801 ± 2.1	4.073 ± 0.086
473.05 K, 180470 kPa	808.83 ± 2.2	4.671 ± 0.098
473.06 K, 60230 kPa	749.17 ± 1.7	1.81 ± 0.039
473.06 K, 79910 kPa	761.86 ± 1.8	2.175 ± 0.046
473.07 K, 100370 kPa	773.42 ± 1.9	2.59 ± 0.055

Source: the NIST ThermoML archive (doi:10.1021/je5008789)
